Assay results as given in paper PMC6832513, “Antimalarial Properties of Dunnione Derivatives as NQO2 Substrates” (Molecules, 2019).
Where “and” joins values, the source holds several entries; their conditions need not be identical. Equal entries are not always repeated. Entries after “also recorded” stand apart in the source; their conditions may differ. Where two headings read alike, the source gives them in different places.

Experiments:
[1] = system: P. falciparum strain FcB1; experiment: In vitro antiplasmodial activity, SYBR Green I-based fluorescence assay; assay type: cell-based, Plasmodium falciparum
Protocol: The in vitro anti-malarial activity was investigated using the SYBR Green I-based fluorescence assay. The asexual intra-erythrocytic stage of P. falciparum laboratory strain FcB1 (chloroquine-resistant strain) was maintained in RPMI 1640 medium containing l-glutamine 200 µM, Hepes 25 mM and 5% human serum (Etablissement Français du Sang—EFS, Toulouse, France). For anti-malarial drug assays, stock solutions of compounds were diluted serially in RPMI 1640 culture medium to test final concentrations between 0.001 and 1 µg/mL in triplicates in a 96-well plate. The final concentration of DMSO was 0.5%. A suspension of sorbitol-synchronized, infected red blood cells (iRBCs) was adjusted to 1% parasitemia and 2% hematocrit in complete medium and added to the wells. Negative controls were prepared with a suspension of iRBCs and 0.5% DMSO. Chloroquine was used as the positive control. Test plates were incubated at 37 °C for 48 h. Afterwards, 100 μL SYBR Green I fluorescent lysis buffer were added to each well and incubated in a dark place at room temperature for 2 h. Fluorescence data were acquired using a fluorescence plate reader (BMG Fluostar Galaxy Labtech) with excitation and emission wavelengths at 485 nm and 518 nm, respectively. The fluorescence values (after subtraction of the background fluorescence of the non-parasitized RBCs) were plotted against the log of the drug concentration, and analyzed by non-linear regression (sigmoidal dose response/variable slope equation) to yield the IC50 (50% inhibitory concentration) that served as a measure of the anti-malarial activity.

[2] = system: P. chabaudi chabaudi; experiment: Four-days suppressive test, P. chabaudi chabaudi mice model (uncomplicated malaria); assay type: in vivo, Plasmodium chabaudi chabaudi in Swiss mice; details: for Pcc parasite density compared to DMSO treatment: 50 mg/kg intraperitoneal D0 to D3, D8 (peak of parasitemia), p < 0.0001; for weight development at D11 after Pcc infection: 50 mg/kg intraperitoneal D0 to D3, D11; for death after Pcc infection: 50 mg/kg intraperitoneal D0 to D3, monitored 13 days
Protocol: As previously described, the four-days suppressive standard test described by Knight and Peters was used to evaluate antimalarial activity of Compounds 1 and 3. P. chabaudi chabaudi (Pcc) and P. berghei ANKA (PbA) infections in Swiss mice were used as experimental models for uncomplicated and cerebral malaria, respectively. […] On the first day (D0), mice were inoculated intraperitoneally with 0.2 mL of infected blood containing about 1 × 10^6 parasitized erythrocytes. […] All mice groups were treated similarly for four consecutive days (D0–D3). Weight, parasitemia and survival were followed daily. To follow peripheral parasite density, thin blood smears were made daily from tail blood from D3 to D14. Blood smears were fixed with methanol and stained with a fast-acting variation of the May–Grünwald Giemsa staining (RAL 555 kit, RAL diagnostics). Average percentage chemosuppression was calculated at D8 for both infection models as ((A − B)/A) × 100 where A is the average percentage parasitemia in the negative control group and B is the average percentage parasitemia in the test group. Survival was monitored twice daily. […]

[3] = target: T1, NQO2 (Homo sapiens, UniProt P16083); experiment: EPR measurement of free radicals (ROS) produced after metabolism by NQO2; assay type: biochemical; details: for radical production after reduction by NQO2: EPR with DMPO spin trap; for radical production after adding the specific NQO2 inhibitor S29434: S29434 30 µM; for ROS after NQO2 Reduction: purified NQO2 20 µg/mL, compound 125 µM, BNAH 1 mM, DMPO 125 mM, grades - to + + + + +
T1 construct: The experiments were conducted with purified enzyme NQO2 (20 µg/mL)
T1 sequence (P16083 1-231): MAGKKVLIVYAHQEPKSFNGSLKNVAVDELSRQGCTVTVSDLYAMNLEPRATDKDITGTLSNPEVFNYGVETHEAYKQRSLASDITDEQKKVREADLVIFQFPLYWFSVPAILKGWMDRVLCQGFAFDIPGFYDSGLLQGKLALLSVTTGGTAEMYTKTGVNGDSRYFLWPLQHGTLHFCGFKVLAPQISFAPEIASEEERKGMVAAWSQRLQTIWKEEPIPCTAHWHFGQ
Protocol: As in previous work, we used an indirect assay to characterize the substrates. […] Using the capacity of NQO2 to reduce quinones into hydroquinones or quinols, we incubated the substrate candidates with the enzyme and its co-substrate, a synthetic hydride donor, N-benzyldihydronicotinamide. […] Thus, using an EPR-based assay, it was possible to evaluate the potency of the process by quantifying those bursts by measuring for the presence of free radicals. The rationale of the process was based on the simple idea that such substrates would generate bursts of ROS, which are particularly toxic for infected red cells.
We measured the ability of the selected compounds to produce superoxide radicals during the redox cycle of NQO2 by EPR spectroscopy. The following compounds were used as molecular tools: Menadione (Figure 1) as a reference compound and NQO2 substrate, S29434 as a specific NQO2 inhibitor [17] and dimethyl-pyrroline-N-oxide (DMPO) as a spin trap reagent to characterize ROS.
The experiments were conducted with purified enzyme NQO2 (20 µg/mL), DMPO (125 mM), tested compounds (125 µM) and BNAH (1 mM). For inhibition assays, we added S29434 (30 µM). All analyses were performed at room temperature. EPR spectra were recorded with a Bruker EMX-8/2.7 (9.86 GHz) with a high-sensitivity cavity (4119/HS 0205) and a gaussmeter (Bruker, Wissembourg, France), at X-band. For analyses, we used a flat quartz cell, FZKI160-5 × 0.3 mm (Magnettech, Berlin, Germany). We performed data processing and spectrum acquisition with WINEPR software (Bruker). Scanning parameters were: Number of scans, 5; magnetic field, 3460–3560 G; sweep width, 100 G; scan rate, 1.2 G/s; modulation amplitude, 1 G; sweep time, 83.88 s; time constant, 40.96 ms; modulation frequency, 100 kHz; and microwave power, 20 mW. The EPR spectra were analyzed as reported previously. The EPR spectrum was presented with the magnetic field on the x-axis in gauss (g) and the intensity of the peaks on the y-axis in arbitrary units (a.u.).

[4] = Cytotoxic evaluation on the Hela cell line (MTT assay); assay type: cell-based; details: human, Hela cells
Protocol: The evaluation of the tested molecules’ cytotoxicity on the Hela cell line was conducted according to the method of Mosman with slight modifications. Briefly, cells (1 × 10^5 cells/mL) in 100 µL of complete medium, (MEM supplemented with 10% fetal bovine serum, 2 mM L-glutamine and antibiotics (100 U/mL penicillin and 100 µg/mL streptomycin) were seeded into each well of the 96-well plates and incubated at 37 °C and 5% CO2. After a 24 h incubation, 100 µL of medium with various product concentrations and appropriate controls were added and the plates were incubated for 72 h at 37 °C and 5% CO2. Each plate-well was then microscope-examined to detect possible precipitate formation before the medium was aspirated from the wells. MTT solution (100 µL, 0.5 mg/mL in RPMI) was then added to each well. Cells were incubated for 2 h at 37 °C and 5% CO2. After this time, the MTT solution was removed and DMSO (100 µL) was added to dissolve the resulting formazan crystals. Plates were shaken vigorously (300 rpm) for 5 min. The absorbance was measured at 570 nm with a microplate spectrophotometer (Eon BioTek). DMSO was used as blank and doxorubicin (purchased from Sigma Aldrich) as positive control. CC50 were calculated by non-linear regression analysis processed on dose response curves, using TableCurve 2D V5 software (San Jose, CA, USA). CC50 values represent the mean value calculated from three independent experiments.

[5] = Acute toxicity in healthy Swiss mice; assay type: in vivo; details: for weight variation compared to the vehicle control group: healthy Swiss mice, 50 mg/kg intraperitoneal, Days 7, 14 and 20; for mortality or major behavioral changes: mouse, in vivo, ip, 50 mg/kg
Protocol: Compounds 1 and 3 were diluted in 50% DMSO and tested at 50 mg/kg. Protocols used for acute oral toxicity measurement were previously described. Briefly, mice were randomly divided into three groups of three mice and treated once a day from D0 to D3 by the intraperitoneal route with 200 µL of Compound 1 or Compound 3 at 50 mg/kg, or DMSO 50%.

[6] = system: P. berghei ANKA; experiment: Four-days suppressive test, P. berghei ANKA mice model (cerebral malaria); assay type: in vivo, Plasmodium berghei ANKA in Swiss mice; details: for survival rate on D10: 50 mg/kg intraperitoneal D0 to D3, D10
Protocol: As previously described, the four-days suppressive standard test described by Knight and Peters was used to evaluate antimalarial activity of Compounds 1 and 3. P. chabaudi chabaudi (Pcc) and P. berghei ANKA (PbA) infections in Swiss mice were used as experimental models for uncomplicated and cerebral malaria, respectively. […] On the first day (D0), mice were inoculated intraperitoneally with 0.2 mL of infected blood containing about 1 × 10^6 parasitized erythrocytes. […] All mice groups were treated similarly for four consecutive days (D0–D3). Weight, parasitemia and survival were followed daily. To follow peripheral parasite density, thin blood smears were made daily from tail blood from D3 to D14. Blood smears were fixed with methanol and stained with a fast-acting variation of the May–Grünwald Giemsa staining (RAL 555 kit, RAL diagnostics). Average percentage chemosuppression was calculated at D8 for both infection models as ((A − B)/A) × 100 where A is the average percentage parasitemia in the negative control group and B is the average percentage parasitemia in the test group. Survival was monitored twice daily. The percentage survival was determined over a period of 21 days (D0–D20) and compared between groups.

[7] = Plasmodium falciparum, FCB1, 48 h, P. falciparum FcB1 (chloroquine-resistant strain), 48 h, read-out: IC50
[8] = 50 mg/kg intraperitoneal D0 to D3, D8
[9] = 50 mg/kg intraperitoneal D0 to D3

Row | Compound | radical production after reduction by NQO2 [3] | radical production after adding the specific NQO2 inhibitor S29434 ([3]; EPR) | ROS after NQO2 Reduction ([3]; EPR, key not given) | TI (Therapeutic Index = CC50/IC50) [1] | IC50 [1, 7] | CC50 at 72 h [4] | other results
1 | CCN(CC)CCCC(C)Nc1ccnc2cc(Cl)ccc12 (stereo not shown) [Chloroquine, chloroquine, reference compound] | – | – | – | – | – | – | IC50 ([1]; Plasmodium falciparum, FCB1, 48 h): 0.164 ± 0.055 nM; % inhibition of parasite density at D8 ([2]; chloroquine 10 mg/kg intraperitoneal D0 to D3, D8): 98.2%
2 | COc1cccc2c1C1=C(C(=O)C2=O)C(C)(C)C(C)O1 (stereo not shown) [Compound 1] | produced radicals; also recorded: induced a production of ROS | decreased | + + | 3.83 | 633 ± 740 nM | 2420 ± 905 nM | weight variation compared to the vehicle control group [5]: similar; mortality or major behavioral changes [5]: did not cause mortality or major behavioral changes; % inhibition of parasite density at D8 [2, 8]: 74.8% and 90.6%; Pcc parasite density compared to DMSO treatment [2]: highly reduced; weight development at D11 after Pcc infection [2]: lost more weight than other groups; death after Pcc infection [2]: did not cause any death; effect on weight loss and parasitemia during PbA infection [6, 9]: did not limit either weight loss or parasitemia; superiority over DMSO (survival) [6, 9]: statistically significant until D15; survival rate on D10 [6]: 80%
3 | COc1ccc2c(c1)C1=C(C(=O)C2=O)C(C)(C)C(C)O1 (stereo not shown) [Compound 2] | no radicals were detected | – | – | 2.15 | 630 to 850 nM | 1250 ± 160 nM | IC50 ([1]; P. falciparum FcB1 (chloroquine-resistant strain), 48 h, read-out: IC50): 580 ± 503 nM
4 | COc1ccc2c(c1)C(=O)C(=O)C1=C2OC(C)C1(C)C (stereo not shown) [Compound 3] | produced radicals; also recorded: induced a production of ROS | decreased | + + + | 1.70 | 845 ± 334 nM | 1430 ± 314 nM | weight variation compared to the vehicle control group [5]: similar; mortality or major behavioral changes [5]: did not cause mortality or major behavioral changes; % inhibition of parasite density at D8 [2, 8]: 90.6% and 74.8%; Pcc parasite density compared to DMSO treatment [2]: highly reduced; weight development at D11 after Pcc infection [2]: lost more weight than other groups; death after Pcc infection [2]: did not cause any death; efficacy on parasite density compared to the CQ treatment ([2]; 50 mg/kg intraperitoneal vs CQ, D8): less effective; effect on weight loss and parasitemia during PbA infection [6, 9]: did not limit either weight loss or parasitemia; survival rate on D10 [6]: 100%
5 | COc1ccc2c(c1)C(=O)C1=C(C2=O)C(C)(C)C(C)O1 (stereo not shown) [Compound 4] | produced radicals | decreased | + + + | 8.53 | 1380 ± 627 nM | 11800 ± 2200 nM | CC50 values fold higher than the IC50 value [1]: 8-9 fold
6 | COc1ccc2c(c1)C(=O)C1=C(OC(C)C1(C)C)C2=O (stereo not shown) [Compound 5] | no radicals were detected | – | – | 9.81 | 1520 ± 853 nM | 14900 ± 3230 nM | CC50 values fold higher than the IC50 value [1]: 8-9 fold
7 | COc1ccc2c(c1)C(=O)C1=C(OC(C)(C)CC1)C2=O [Compound 6] | produced radicals | – | + + + | >0.94 | 19500 ± 7090 nM | > 18400 nM | ROS after Inhibition of NQO2 with S29434 ([3]; EPR, as above plus S29434 30 µM, grades - to + +, key not given): + +
8 | COc1ccc2c(c1)C1=C(CCC(C)(C)O1)C(=O)C2=O [Compound 7] | no radicals were detected | – | – | 2.21 | 753 ± 484 nM | 1660 ± 368 nM | –
9 | COc1cccc2c1C(=O)c1c(O)c3c(c(O)c1C2=O)C[C@@](O)(C(=O)CO)C[C@@H]3O[C@H]1C[C@H](N)[C@H](O)[C@H](C)O1 [Doxorubicin, doxorubicin, reference compound] | – | – | – | – | – | 311 ± 478 nM | –
10 | CC1=CC(=O)c2ccccc2C1=O [Menadione, menadione, reference compound] | – | – | + + + + + | – | – | – | –
